Test results published in article PMC5308254, “Bioactivity of Natural and Engineered Antimicrobial Peptides from Venom of the Scorpions Urodacus yaschenkoi and U. manicatus” (Toxins, 2017).
No end group written: not given here.

Tests used:
Escherichia coli (D31) = assay: Growth inhibition assay (MIC), E. coli; format: cell-based; conditions: 384-well plates, LB, 37 °C, peptide 0.015–250 µM; growth totally inhibited; average of n ≥ 3; dash = no inhibition
Procedure: (§1) The minimal inhibitory concentration (MIC) of each AMPs was determined against the Gram-positive bacteria Listeria monocytogenes (DSM20600), L. grayi (DSM20601), L. fleischmannii (DSM24998), Staphylococcus aureus (DSM2569) and Micrococcus luteus (DSM20030), and the Gram-negative species Escherichia coli (D31) and Pseudomonas aeruginosa (DSM50071). The scorpion peptides were prepared at concentrations of 0.015–250 μM. The assays were carried out in 384-well plates (Greiner Bio One, Frickenhausen, Germany) using Brain Heart Infusion Broth (BHIB) medium for Listeria spp., Tryptic Soy Broth (TSB) for S. aureus, and lysogeny broth (LB) for the others. The bacteria were cultivated overnight at either 37 °C (Listeria spp., S. aureus, E. coli and P. aeruginosa) or 30 °C (M. luteus) and subcultured in fresh media before the growth inhibition assays. Growth inhibition was measured as previously described.

[1] = test system: Staphylococcus aureus (DSM2569); assay: Growth inhibition assay (MIC), S. aureus; format: cell-based; conditions: 384-well plates, TSB, 37 °C, peptide 0.015–250 µM; growth totally inhibited; average of n ≥ 3; dash = no inhibition
Procedure: as §1

[2] = test system: Listeria monocytogenes (DSM20600); assay: Growth inhibition assay (MIC), L. monocytogenes; format: cell-based; conditions: 384-well plates, BHIB, 37 °C, peptide 0.015–250 µM; growth totally inhibited; average of n ≥ 3; dash = no inhibition
Procedure: as §1

[3] = test system: Micrococcus luteus (DSM20030); assay: Growth inhibition assay (MIC), M. luteus; format: cell-based; conditions: 384-well plates, LB, 30 °C, peptide 0.015–250 µM; MIC = concentration at which growth was totally inhibited; average of n ≥ 3; dash = no inhibition
Procedure: as §1

[4] = test system: L. fleischmannii (DSM24998); assay: Growth inhibition assay (MIC), L. fleischmannii; format: cell-based, Listeria fleischmannii; conditions: 384-well plates, BHIB, 37 °C, peptide 0.015–250 µM; growth totally inhibited; average of n ≥ 3; dash = no inhibition
Procedure: as §1

L. grayi (DSM20601) = assay: Growth inhibition assay (MIC), L. grayi; format: cell-based, Listeria grayi; conditions: 384-well plates, BHIB, 37 °C, peptide 0.015–250 µM; growth totally inhibited; average of n ≥ 3; dash = no inhibition
Procedure: as §1

[5] = test system: baby hamster kidney cells (BHK21); assay: Cytotoxicity, alamarBlue, BHK-21 cells; format: cell-based; conditions: 2 h at 37 °C, 0.1–100 µM, alamarBlue fluorescence, non-linear fit, n ≥ 3
Procedure: (§2) Cytotoxicity was evaluated using the baby hamster kidney cell line (BHK-21) included in F2H®-Kit Basic (Chromotek, Planegg-Martinsried, Germany). The BHK-21 cells were grown in 25-cm^2 cell culture flasks (Greiner Bio One, Frickenhausen, Germany) containing Dulbecco’s Modified Eagle’s Medium (DMEM) supplemented with 4.5 g/L glucose, 110 mg/L sodium pyruvate and L-glutamine, and 10% fetal bovine serum (FBS), and were maintained in an NU-5810 incubator (ibs tecnomara, Fernwald, Germany) at 37 °C with a 5% CO2 atmosphere. The cells were subcultured at ~90% confluence by detaching with 0.25% trypsin and 0.03% EDTA (Sigma-Aldrich, St Louis, MO, USA). The AMPs were dissolved in water and diluted to final concentrations of 0.1, 1, 10 and 100 µM in DMEM.
(§3) BHK-21 cells were prepared and tested as previously described. Confluent cells were detached, counted and seeded at a concentration of 8.5 × 10^4 cell/mL in a 96-well culture plate (Greiner Bio One-Cell Star) 48 h before each experiment. The cells were rinsed with 100 µL PBS before adding 100 µL of the AMP solution and incubating for 2 h at 37 °C. The AMP solution was then removed and the cells were rinsed again with PBS before staining with 10% v/v alamarBlue™ Dye (Thermo Fisher Scientific, Schwerte, Germany) in DMEM for 1 h. The fluorescence of the metabolized alamarBlue™ Dye was measured in an Eon microplate reader using excitation and emission filters of 528 and 590 nm, respectively. DMEM and cells exposed to DMEM without AMPs were included as a blank reference and negative control, respectively. Four independent experiments were carried out for each AMP concentration in triplicate. To assess the percentage of viable cells compared to the control, the data were analyzed with GraphPad Prism v5.0 software using non-linear regression to fit the curve (Figure S2). The EC50 was reported as the AMP concentration that reduces cell viability by 50%.

[6] = Cytotoxicity, alamarBlue, BHK-21 cells; format: cell-based, hamster; conditions: hamster, 2 h at 37 °C, 0.1–100 µM, alamarBlue fluorescence, non-linear fit, concentration reducing viability by 50%, n ≥ 3, read-out: EC50 (effective cytotoxic concentration)
Procedure: as §2, §3

pig erythrocytes = assay: Hemolytic activity on pig erythrocytes; format: cell-based; conditions: for HC10 (hemolytic concentration) / HC90 (hemolytic concentration) / HC50 (hemolytic concentration) / percentage of hemolysis: 1 h at 37 °C; for HC10 (hemolytic concentration) / HC90 (hemolytic concentration) / HC50 (hemolytic concentration): 6.25–100 µM, absorbance 570 nm, non-linear fit; for HC10 (hemolytic concentration) / HC90 (hemolytic concentration): n ≥ 3; for HC50 (hemolytic concentration): n ≥ 3, n.c. (100) = not convergent at 100 µM; for percentage of hemolysis: 100 µM peptide (highest tested), 10% Triton X-100 = 100% hemolysis
Procedure: The hemolytic activity of each AMP was determined using pig erythrocytes. Serial dilutions (6.25–100 µM) of each AMP were prepared, and after incubation for 1 h at 37 °C the cells were centrifuged and the absorbance of the supernatant was measured at 570 nm using an Eon Microplate Spectrophotometer (BioTek Instruments, Winooski, VT, USA). Three independent experiments were carried out for each concentration in triplicate. PBS and 10% Triton X–100 were used as negative and positive controls, respectively. The percentage hemolysis was calculated using the formula 100((Apeptide–APBS)/(Atriton–APBS)). The AMP concentration causing 50% hemolysis (HC50) of the pig erythrocytes was determined by non-linear regression with the data fitted to the logistical sigmoidal equation, using GraphPad Prism v5.0 (GraphPad Software, San Diego, CA, USA) (Figure S2).

seven different bacteria = assay: Antibacterial activity against all seven bacteria tested (summary); format: cell-based; conditions: approximate overall value
Procedure: as §1

Row | Substance | MIC E. coli (Escherichia coli (D31)) [µM] | MIC S. aureus [1] [µM] | MIC L. monocytogenes [2] [µM] | MIC M. luteus [3] [µM] | MIC L. fleischmannii [4] [µM] | MIC L. grayi (L. grayi (DSM20601)) [µM] | EC10 (effective cytotoxic concentration) [5] [µM] | EC90 (effective cytotoxic concentration) [5] [µM] | CC50 at 2 h [6] [µM] | HC10 (hemolytic concentration) (pig erythrocytes) [µM] | HC90 (hemolytic concentration) (pig erythrocytes) | HC50 (hemolytic concentration) (pig erythrocytes) [µM] | percentage of hemolysis (pig erythrocytes) | hemolytic activity (in words) (pig erythrocytes) | MIC against all seven bacteria tested (seven different bacteria)
1 | FFSALLSGIKSLF-NH2 [Um4] | 8 | 15 | 8 | 8 | 4 | 15 | 3.22 | 261 | 87 | – | – | – | – | – | –
2 | FLSTIWNGIKGLL-NH2 [Uy192] | 15 | 15 | 8 | 15 | 4 | 15 | 1.92 | 155.90 | 52 | 35.85 | 675.22 µM | 155.6 | – | – | –
3 | FLSTIWNGIKSLF-NH2 [D2] | – | 8 | 15 | 4 | 15 | – | 13.95 | 1130 | 377 | 2.94 | 200.83 µM | 24.48 | 64% | – | –
4 | FPFLKLSLKIPKSAIKSAIKRL-NH2 [D10] | 8 | – | 30 | 0.25 | 30 | 8 | 5.24 | 424.30 | 141 | 149.75 | 19,894.17 µM | 1726 | ~ 10% | – | –
5 | FPFLLSLIPSAISAIKRL-NH2 [Uy234] | – | – | 2 | 2 | – | 4 | 0.23 | 18.86 | 6.29 | 55.14 | 198.04 µM | 104.50 | – | – | –
6 | GFWGKLLEGVKKAI-NH2 [D5] | 15 | – | 15 | 8 | 15 | 8 | 2.50 | 202.90 | 67.6 | 110.86 | 24,141.72 µM | 1636 | ~ 10% | – | –
7 | GFWGKLWEGVKSAI-NH2 [Um3] | 15 | 15 | 8 | 2 | 4 | 4 | 2.359 | 191.1 | 63.7 | 70.48 | 246.84 µM | 126.2 | – | – | –
8 | GFWGKLWKPVKKAI-NH2 [D4] | – | – | 30 | 2 | 15 | 8 | 36.30 | 2940 | 980 | – | – | – | – | no hemolytic activity | –
9 | GFWKGKLWKEGVKNAIK [D12, engineered AMP based on UyCT1 but with distributed lysine residues] | – | – | – | – | – | – | – | – | – | – | – | – | – | – | totally inactive
10 | IFGAIWSGIKSLF-NH2 [D1] | 8 | – | 4 | 4 | 4 | 8 | 0.69 | 55.75 | 18.6 | 15.50 | 148.51 µM | 48 | – | – | –
11 | IFKAIWSGIKSLF-NH2 [Um5] | 15 | – | 2 | 2 | 2 | 2 | 0.36 | 29.12 | 9.71 | 11.944 | 293.90 µM | 59.25 | – | – | –
12 | ILSAIWSGIKGLL-NH2 [Uy17] | – | 30 | 15 | 15 | – | – | 2.73 | 220.80 | 73.6 | 26.65 | 718.55 µM | 138.40 | – | – | –
13 | ILSAIWSGIKSLF-NH2 [UyCT3] | 8 | – | 4 | 4 | 4 | 8 | 0.57 | 46.12 | 15.4 | 15.78 | 214.22 µM | 58.15 | – | – | –
14 | ISQSDAILSAIWSGIKSLF-NH2 [Um2] | – | – | – | 4 | – | – | 0.58 | 47.12 | 15.7 | 2.36 | 7033.22 µM | 129 | – | – | –
15 | IWSAIWSGIKGLL-NH2 [UyCT5] | 15 | 8 | 4 | 4 | 8 | 8 | 0.91 | 73.65 | 24.6 | 2.39 | 177.49 µM | 20.59 | 70% | – | –
